Results from patent US12649730B2 (MITOIMMUNE THERAPEUTICS INC., priority 2021, dated 2026).
“Also recorded” adds a separate entry of the source.

Columns and labels:
Assay type in all cases: physicochemical
[1] = Stability testing of 5 crystalline forms over 8 weeks at harsh conditions (40° C., 75% relative humidity)
Method: Stability testing was carried out over 8 weeks at harsh conditions (40° C., 75%, relative humidity) on the 5 crystalline forms obtained in Example 3.

[2] = Pressurization test for Crystalline Form A; details: 3 minutes each at 2, 3 and 4 MPa
Method: 100 mg of Crystalline Form A was placed in a die cavity, then made into tablets by pressing for 3 minutes each at pressures of 2, 3 and 4 MPa using an upper punch.

[3] = Water sorption and desorption study, DVS cycle; details: 25° C.
Method: Using SMS DVS Advantage 1, 10 mg sample was placed in a mesh stainless steel basket. The overall test cycle comprises scanning two times (sorption and desorption) at 10% RH intervals in a 40 to 90% range (60 to 360 minutes for each humidity level) at a constant temperature (25° C.). Using SMS DVS Advantage 1, 10 mg of Crystalline Form A was placed in a mesh stainless steel basket. The overall test cycle comprises scanning two times (sorption and desorption) at 10% RH intervals in a 40 to 90% range (60 to 360 minutes for each humidity level) at a constant temperature (25° C.). Approximately 0.7% weight increase and absorption and loss relative to sorption level indicates a non-hygroscopic sample. FIG. 38 is an isotherm curve for Crystalline Form A (weight change % v. RH %), and a kinetic curve of weight change % v. time and relative humidity %.

[4] = Grinding test for Crystalline Form A
Method: 30 mg Crystalline Form A was manually ground for 5 minutes in a mortar and pestle. […] 30 mg of Crystalline Form A and […] of EtOH were placed in a mortar and pestle, and manually ground for 5 minutes. […] 30 mg of Crystalline Form A and […] of H2O were placed in a mortar and pestle, and manually ground for 5 minutes.

[5] = 40° C./75% RH, 1 week, listed as Crystalline Form XII
[6] = 40° C./75% RH, 2 weeks, listed as Crystalline Form XII
[7] = 40° C./75% RH, 8 weeks, listed as Crystalline Form XII
[8] = Initial, listed as Crystalline Form XII

SMILES | Assay ([1]; 40° C./75% RH, 1 week) [%] | Purity ([1]; 40° C./75% RH, 1 week) [%] | XRPD Patterns ([1]; 40° C./75% RH, 1 week) | Assay ([1]; 40° C./75% RH, 2 weeks) [%] | Purity ([1]; 40° C./75% RH, 2 weeks) [%] | XRPD Patterns ([1]; 40° C./75% RH, 2 weeks) | Assay ([1]; 40° C./75% RH, 4 weeks) [%] | Purity ([1]; 40° C./75% RH, 4 weeks) [%] | XRPD Patterns ([1]; 40° C./75% RH, 4 weeks) | Assay ([1]; 40° C./75% RH, 8 weeks) [%] | Purity ([1]; 40° C./75% RH, 8 weeks) [%] | XRPD Patterns ([1]; 40° C./75% RH, 8 weeks) | Assay ([1]; Initial) [%] | Purity ([1]; Initial) [%] | XRPD Patterns ([1]; Initial) | further results
O=S1(=O)CCN(Cc2cc(NC3CCOCC3)c3[nH]c(-c4ccccc4)cc3c2)CC1 [Crystalline Form VIII, 5-[(1,1-dioxido-4-thiomorpholinyl)methyl]-2-phenyl-N-(tetrahydro-2H-pyran-4-yl)-1H-indol-7-amine] | 106.67 | 99.95 | Pattern A | 102.74 | 99.91 | Pattern A | 105.56 | 99.83 | Pattern A | 107.08 | 100.00 | converted into Crystalline Form XII; also recorded: Pattern A | 100.00 | 99.94 | Pattern VIII | 
O=S1(=O)CCN(Cc2cc(NC3CCOCC3)c3[nH]c(-c4ccccc4)cc3c2)CC1 [Crystalline Form V, 5-[(1,1-dioxido-4-thiomorpholinyl)methyl]-2-phenyl-N-(tetrahydro-2H-pyran-4-yl)-1H-indol-7-amine] | 103.86 | 99.60 | Pattern A | 103.99 | 99.21 | Pattern A | 98.50 | 99.16 | Pattern A | 104.75 | 99.36 | converted into Crystalline Form XII; also recorded: Pattern A | 100.00 | 99.37 | Pattern V | 
O=S1(=O)CCN(Cc2cc(NC3CCOCC3)c3[nH]c(-c4ccccc4)cc3c2)CC1 [Crystalline Form IV, 5-[(1,1-dioxido-4-thiomorpholinyl)methyl]-2-phenyl-N-(tetrahydro-2H-pyran-4-yl)-1H-indol-7-amine] | 101.81 | 99.73 | Pattern A | 105.36 | 99.88 | Pattern A | 99.58 | 99.87 | Pattern A | 104.25 | 99.86 | converted into Crystalline Form XII; also recorded: Pattern A | 100.00 | 99.87 | Pattern IV | 
O=S1(=O)CCN(Cc2cc(NC3CCOCC3)c3[nH]c(-c4ccccc4)cc3c2)CC1 [Crystalline Form A, 5-[(1,1-dioxido-4-thiomorpholinyl)methyl]-2-phenyl-N-(tetrahydro-2H-pyran-4-yl)-1H-indol-7-amine] |  |  |  |  |  |  |  |  |  |  |  |  | 100.00 |  |  | Stability judged among the 5 crystalline forms ([1]; 40° C., 75% relative humidity, 8 weeks): most stable crystalline form; Assay [1, 5]: 101.17%; Purity [1, 5]: 99.19%; XRPD Patterns [1, 5]: Pattern A; Assay [1, 6]: 102.12%; Purity [1, 6]: 98.69%; XRPD Patterns [1, 6]: Pattern A; Assay [1, 7]: 102.17%; Purity [1, 7]: 99.88%; XRPD Patterns [1, 7]: Pattern A; Purity [1, 8]: 98.85%; XRPD Patterns [1, 8]: Pattern A; XRPD analysis after pressing into tablets and grinding [2]: no changes; Hygroscopicity ([3]; DVS, 40 to 90% RH): non-hygroscopic; Weight increase (water sorption) ([3]; DVS, 40 to 90% RH): Approximately 0.7%; XRPD analysis after DVS ([3]; after DVS cycle): no change in crystalline form; XRPD analysis after wet grinding in EtOH ([4]; manually ground 5 minutes in EtOH): no change; XRPD analysis after wet grinding in H2O ([4]; manually ground 5 minutes in H2O): no change; XRPD analysis after dry grinding ([4]; manually ground 5 minutes, mortar and pestle): no change
O=S1(=O)CCN(Cc2cc(NC3CCOCC3)c3[nH]c(-c4ccccc4)cc3c2)CC1 [Crystalline Form XI, 5-[(1,1-dioxido-4-thiomorpholinyl)methyl]-2-phenyl-N-(tetrahydro-2H-pyran-4-yl)-1H-indol-7-amine] | 95.79 | 99.70 |  | 105.59 | 99.36 |  | 103.58 | 99.56 | Pattern A | 104.04 | 99.58 |  | 100.00 | 99.55 | Pattern XI | 
